In paper PMC9965906, “Discovery and Development Strategies for SARS-CoV-2 NSP3 Macrodomain Inhibitors” (Pathogens, 2023):
Values joined by “and” are separate entries in the source; they are usually repeats but may differ in a detail not shown here. Identical values can stand only once. Counter-ions that a name gives are not always drawn. Like-named read-outs stand apart in the source and are kept apart here.

Target: SARS-CoV-2 NSP3 Mac1 (Severe acute respiratory syndrome coronavirus 2, UniProt P0DTD1)
Assay: biochemical
Assay type: binding
Settings: for NSP3 Mac1 inhibition at 50 µM (%) / inhibition at 50 µM: FDA-approved compound library primary screen, single shot; for inhibition at 125 µM: read-out: Inhibition at top concentration of 125 µM (%); for inhibitory activity in FDA-approved library screen: primary screen at the set screening concentration
[1] = FDA-approved hit compounds, confirmatory HTRF assays
[2] = MIDAS hit compounds and analogues
[3] = MIDAS hit compounds and analogues, top concentration 125 µM, 8-point 1:1 dilution, duplicate
[4] = MIDAS hit compounds and analogues, top concentration 125 µM, 8-point 1:1 dilution, duplicate, read-out: IC50
[5] = BioAscent virtual screening hit compounds, duplicate

| Compound | inhibition at 125 µM [2] [%] | IC50 in µM [3] | other results |
| --- | --- | --- | --- |
| CN1CCCN=C1/C=C/c1cccc(O)c1 [Oxantel pamoate, reference compound] |  |  | IC50: 11.7 µM and 12 µM; NSP3 Mac1 inhibition at 50 µM (%): 56%; inhibition at 50 µM: 55.9%; Hill slope [1]: 1.34 |
| CCn1ncc2c(C(=O)Nc3cc(Cl)ccc3OC)cc(-c3cccs3)nc21 [IAL-MD0038, CCN1N=CC=2C(=CC(=NC12)C3=CC=CS3)C(=O)NC=4C=C(Cl)C=CC4OC] | 50.5 | Not measurable |  |
| CCNC(=O)c1ccc(-c2ccnc3c2ccn3C)o1 [IAL-MD0147, O=C(NCC)C1=CC=C(C2=C3C(N(C)C=C3)=NC=C2)O1] |  |  | Inhibition at top concentration of 125 µM (%) [2]: Not measurable due to compound precipitation; IC50 [4]: 6.8 µM |
| C=CC1=C(C)c2cc3[nH]c(cc4nc(cc5[nH]c(cc1n2)c(C)c5CCC(=O)O)C(CCC(=O)O)=C4C)c(C)c3C=C [Protoporphyrin IX, reference compound] |  |  | inhibition at 50 µM: 75% |
| CN(C)C1CCN(C(=O)c2ccc(-c3ncnc4[nH]ccc34)cc2)C1 (centres unmarked) [IAL-MD0141, O=C(N1CC(N(C)C)CC1)C2=CC=C(C3=C4C(NC=C4)=NC=N3)C=C2.O=CO] | 81.3 |  | IC50 [4]: 25.2 µM |
| COc1ccc(-c2cc(C(=O)Nc3ccc4ccccc4c3)c3ccccc3n2)cc1 [IAL-MD0118, COC=1C=CC(=CC1)C=2C=C(C(=O)NC=3C=CC=4C=CC=CC4C3)C=5C=CC=CC5N2] | 25.6 | Not measurable |  |
| CCn1ncc2c(C(=O)N3CCCC3c3ccc(OC)cc3)cc(-c3cccs3)nc21 (centres unmarked) [IAL-MD0066, CCN1N=CC=2C(=CC(=NC12)C3=CC=CS3)C(=O)N4CCCC4C=5C=CC(OC)=CC5] | 13.5 | Not measurable |  |
| Nc1ccc2nc3c(=O)[nH]c(=O)[nH]c3nc2c1 [BCC0091906, Nc1ccc2nc3c(=O)[nH]c(=O)[nH]c3nc2c1] |  |  | inhibition at 25 µM [5]: 56.2% |
| CCn1ncc2c(C(=O)NCCNC(C)=O)cc(-c3cccs3)nc21 [IAL-MD0092, CCN1N=CC=2C(=CC(=NC12)C3=CC=CS3)C(=O)NCCNC(=O)C] | 17.1 | Not measurable |  |
| CC(=O)OCC1=C(C(=O)O)N2C(=O)[C@@H](NC(=O)CCC[C@@H](N)C(=O)O)[C@H]2SC1 [Cephalosporin C sodium, reference compound] |  |  | inhibition at 50 µM: 89.8% |
| Cn1ccc2c(-c3ccc(C(=O)NC4CC4)o3)ccnc21 [IAL-MD0132, O=C(NC1CC1)C2=CC=C(C3=C4C(N(C)C=C4)=NC=C3)O2] |  |  | Inhibition at top concentration of 125 µM (%) [2]: Not measurable due to compound precipitation; IC50 [4]: 7.2 µM |
| CN1C(=O)c2ccc(N3CCCC3)cc2C1=O [BCC0067629, CN1C(=O)c2ccc(N3CCCC3)cc2C1=O] |  |  | inhibition at 25 µM [5]: 30.5% |
| CCN1C(=O)c2cccc3c(S(=O)(=O)O)ccc1c23 [BCC0032304, CCN1C(=O)c2cccc3c(S(=O)(=O)O)ccc1c23] |  |  | inhibition at 25 µM [5]: 36.4% |
| Nc1ccc2c(c1)C/C(=C/c1ccco1)C2=O [BCC0121661, Nc1ccc2c(c1)C/C(=C/c1ccco1)C2=O] |  |  | inhibition at 25 µM [5]: 56.9% |
| COCCCOc1ccnc(C[S+]([O-])c2nc3ccccc3[nH]2)c1C (centres unmarked) [rabeprazole, reference compound] |  |  | inhibitory activity in FDA-approved library screen: could yet not measure any inhibitory activity |
| Cc1ccc(-c2cc(C(=O)N3CCOCC3)c3cnn(C(C)C)c3n2)s1 [IAL-MD0051, CC(C)N1N=CC=2C(=CC(=NC12)C3=CC=C(C)S3)C(=O)N4CCOCC4] | 59.8 |  | IC50 [4]: 12.6 µM; assay effects in dose-response titration (MIDAS hits and analogues, higher compound concentrations): secondary assay effects at higher concentrations |
| CN1CCN(C(=O)c2cncc(-c3ccnc4c3ccn4C)n2)CC1 [IAL-MD0146, O=C(C1=CN=CC(C2=C3C(N(C)C=C3)=NC=C2)=N1)N4CCN(C)CC4] | 3.7 | Not measurable |  |
| CCn1ncc2c(C(=O)NC(C)c3ccncc3)cc(-c3cccs3)nc21 (centres unmarked) [IAL-MD0120, CCN1N=CC=2C(=CC(=NC12)C3=CC=CS3)C(=O)NC(C)C=4C=CN=CC4] | 8.9 | Not measurable |  |
| CC(C)n1ncc2c(C(=O)N(C)Cc3ccc4c(c3)OCO4)cc(-c3cccs3)nc21 [IAL-MD0065, CC(C)N1N=CC=2C(=CC(=NC12)C3=CC=CS3)C(=O)N(C)CC=4C=CC=5OCOC5C4] | 9.5 | Not measurable |  |
| COCCN(CC(N)=O)C(=O)c1cc(-c2cccs2)nc2c1c(C)nn2C [IAL-MD0116, COCCN(CC(=O)N)C(=O)C=1C=C(N=C2N(C)N=C(C)C12)C3=CC=CS3] | 55.8 | Not measurable |  |
| CN(C)S(=O)(=O)c1ccc2nc(C(=O)O)n(O)c2c1 [BCC0019152, CN(C)S(=O)(=O)c1ccc2nc(C(=O)O)n(O)c2c1] |  |  | inhibition at 25 µM [5]: 32.7% |

| Compound | inhibition at 125 µM [2] [%] | IC50 in µM [3] | other results |
| --- | --- | --- | --- |
| C=C1c2cccc(O)c2C(=O)C2=C(O)[C@]3(O)C(=O)C(C(N)=O)=C(O)[C@@H](N(C)C)[C@@H]3[C@@H](O)[C@H]12 [Methacycline hydrochloride, reference compound] |  |  | NSP3 Mac1 inhibition at 50 µM (%): 87%; inhibition at 50 µM: 86.8%; outcome of dose-response titration (FDA-approved hit compounds, top concentration 125 µM): strong assay interference |
| CCn1ncc2c(C(=O)N(Cc3ccccn3)C(C)C)cc(-c3ccccc3)nc21 [IAL-MD0109, CCN1N=CC=2C(=CC(=NC12)C=3C=CC=CC3)C(=O)N(CC=4C=CC=CN4)C(C)C] |  | Not measurable | Inhibition at top concentration of 125 µM (%) [2]: Not measurable |
| CC(C)n1ncc2c(C(=O)N3CCc4ccccc4C3)cc(-c3cccs3)nc21 [IAL-MD0060, CC(C)N1N=CC=2C(=CC(=NC12)C3=CC=CS3)C(=O)N4CCC=5C=CC=CC5C4] | 1.9 | Not measurable |  |
| CCn1ncc2c(C(=O)Nc3ccc(C(N)=O)cc3)cc(-c3cccs3)nc21 [IAL-MD0097, CCN1N=CC=2C(=CC(=NC12)C3=CC=CS3)C(=O)NC=4C=CC(=CC4)C(=O)N] | 7.7 | Not measurable |  |
| Nc1c(C(=O)NC2CC2)sc2nc(-c3ccccn3)ccc12 [IAL-MD0017, O=C(C1=C(N)C2=CC=C(C3=NC=CC=C3)N=C2S1)NC4CC4] | 79.6 |  | inhibition at 25 µM (MIDAS compound library primary screen): 58.7%; IC50 [4]: 12.6 µM |
| O=c1c2ccccc2[se]n1-c1ccccc1 [Ebselen, reference compound] |  |  | NSP3 Mac1 inhibition at 50 µM (%): 107%; inhibition at 50 µM: 108%; Hill slope [1]: 4.94 |
| CCn1ncc2c(C(=O)Nc3ncc(C)s3)cc(-c3cccs3)nc21 [IAL-MD0026, CCN1N=CC=2C(=CC(=NC12)C3=CC=CS3)C(=O)NC4=NC=C(C)S4] | 11.1 | Not measurable |  |
| CC(=O)Nc1cccc(NC(=O)c2cc(-c3cccs3)nc3c2cnn3C(C)C)c1 [IAL-MD0032, CC(C)N1N=CC=2C(=CC(=NC12)C3=CC=CS3)C(=O)NC=4C=CC=C(NC(=O)C)C4] | 20.3 | Not measurable |  |
| O=C(O)c1cc(O)c2c(c1)[C@H]([C@H]1c3cc(C(=O)O)cc(O)c3C(=O)c3c(O[C@@H]4O[C@H](CO)[C@@H](O)[C@H](O)[C@H]4O)cccc31)c1cccc(O[C@@H]3O[C@H](CO)[C@@H](O)[C@H](O)[C@H]3O)c1C2=O [Sennoside A, reference compound] |  |  | NSP3 Mac1 inhibition at 50 µM (%): 112%; inhibition at 50 µM: 112% |
| CCCN(CC(=O)Nc1ccccc1C)C(=O)c1cc(-c2cccs2)nc2c1cnn2CC [IAL-MD0093, CCCN(CC(=O)NC=1C=CC=CC1C)C(=O)C=2C=C(N=C3N(CC)N=CC23)C4=CC=CS4] | 7.7 | Not measurable |  |
| CCn1ncc2c(C(=O)N(C)Cc3ccccc3C)cc(-c3cccs3)nc21 [IAL-MD0042, CCN1N=CC=2C(=CC(=NC12)C3=CC=CS3)C(=O)N(C)CC=4C=CC=CC4C] | 20.9 | Not measurable |  |
| Nc1ncnc2[nH]cnc12 [adenine, reference compound] |  |  | inhibitory activity in FDA-approved library screen: did not show any inhibitory activity |
| CCn1ncc2c(C(=O)N(C)CC(=O)NCc3ccco3)cc(-c3cccs3)nc21 [IAL-MD0062, CCN1N=CC=2C(=CC(=NC12)C3=CC=CS3)C(=O)N(C)CC(=O)NCC4=CC=CO4] | 42.2 | Not measurable |  |
| CC(C)n1ncc2c(C(=O)NCc3cccs3)cc(-c3ccccc3)nc21 [IAL-MD0018, CC(C)N1N=CC=2C(=CC(=NC12)C=3C=CC=CC3)C(=O)NCC4=CC=CS4] |  | Not measurable | Inhibition at top concentration of 125 µM (%) [2]: Not measurable |
| COc1cccc(NC(=O)c2cc(-c3cccs3)nc3c2cnn3C(C)C)c1 [IAL-MD0033, COC=1C=CC=C(NC(=O)C=2C=C(N=C3N(N=CC23)C(C)C)C4=CC=CS4)C1] | 12.1 | Not measurable |  |
| CCCCNC(=O)c1ccc(-c2cc(N)nc3[nH]ccc23)o1 [IAL-MD0134, O=C(NCCCC)C1=CC=C(C2=C3C(NC=C3)=NC(N)=C2)O1] | 77.8 |  | IC50 [4]: 25 µM and 25.3 µM |
| CC(=O)c1ccc(-c2ccc(N)cc2)o1 [BCC0119417, CC(=O)c1ccc(-c2ccc(N)cc2)o1] |  |  | inhibition at 25 µM [5]: 59.3% |
| Cn1ccc2c(-c3ncccc3C(N)=O)ccnc21 [IAL-MD0136, O=C(N)C1=C(C2=C3C(N(C)C=C3)=NC=C2)N=CC=C1] | 49.7 | Not measurable |  |
| COc1cc2c(cc1/C=C/C(=O)O)OC(C)C2 (centres unmarked) [IAL-MD0306, COc1cc2c(cc1/C=C/C(=O)O)OC(C)C2] |  |  | inhibition at 187 µM (BioAscent hit compounds, 187 µM, read-out: Inhibition at top screening concentration of 187 µM): 81.3%; Hill slope (BioAscent hit compounds, confirmatory IC50 curves): 0.8; IC50 (BioAscent hit compounds, top concentration 187 µM, 8-point 1:1 dilution, duplicate, read-out: IC50): 18 µM; inhibition at 25 µM [5]: 63.7% |
| CC(C)NC(=O)c1ccc(-c2ccnc3c2ccn3C)o1 [IAL-MD0130, O=C(NC(C)C)C1=CC=C(C2=C3C(N(C)C=C3)=NC=C2)O1] |  |  | Inhibition at top concentration of 125 µM (%) [2]: Not measurable due to compound precipitation; IC50 [4]: 7.6 µM |
